Assays:
[1] = system: G6 Pase, PEPCK and PGC-1 mRNA; assay: Insulin effect on mRNA levels and PGC-1 function in cultured liver cells; format: cell-based; conditions: for PGC-1 induced expression of PEPCK and glucose-6-phosphatase: cultured liver cells
Description: This example describes experiments designed to determine whether insulin acts directly to suppress PGC-1 expression or function. The levels of PGC-1 mRNA were first examined in cells treated with various combinations of insulin, forskolin, and dexamethasone.
However, PGC-1 function is negatively regulated by insulin in cultured liver cells. […] FKHR is regulated directly by Akt via phosphorylation. Stimulation by insulin results in activation of Akt, which phosphorylates FKHR, which in turn inactivates FKHR by causing it to exit the nucleus. Insulin treatment downregulates the ability of PGC-1 to induce the gluconeogenic genes PEPCK and glucose-6-phosphatase. PGC-1 induced expression of the genes was […] when a constitutively active FKHR was used, while a dominant-negative FKHR also downregulates the ability of PGC-1 to induce these genes, even in the absence of insulin.

PGC-1 = assay: STZ-diabetic mouse, liver PGC-1 (Northern); format: in vivo; conditions: STZ-diabetic mice, after 10 days
Experimental: For the feeding experiments, male mice were either allowed free access to food or subjected to a 24 hour fast and sacrificed at the end of 24 hours. A third group was fasted for 24 hours and then fed ad libitum for another 24 hours prior to sacrifice. For the STZ-diabetic mouse experiments, 6-8 week old male mice (n=3 per group) were injected intraperitoneally for three consecutive days with either sodium citrate solution or streptozotocin ([…] of body weight per injection). Animals were sacrificed after 10 days, at which point the mean blood glucose in the STZ-treated group rose to over 400 mg/dl. For the LIRKO mouse experiments, two-month-old female control (lox/lox) or LIRKO mice were divided into three groups (n=2 each) and subjected to the standard feeding protocol as described above.
Total RNA was prepared from cells or tissues with Trizol (Life Technologies) according to the manufacturer's instructions. Ten to twenty micrograms of total RNA was fractionated in a 1% agarose-formaldehyde gel, transferred onto nylon, and hybridized with cDNA probes labeled by random-primed labeling (Boehringer Mannheim) with [-^32P]-dCTP, using methods known in the art. […]

PEPCK promoter = assay: PEPCK promoter-luciferase reporter assay in Fao hepatoma cells; format: cell-based, rat
Experimental: (§1) NIH 3T3 or Fao hepatoma cells were cultured in 10% FBS-RPMI and transfected at 70-90% confluency using Fugene 6 (Roche). The ratio of DNA:Fugene was 1:2. Culture medium was changed after 24 hours. Cells were collected 48 hours after transfection and β-galactosidase and luciferase assays were performed. Transfections were performed in duplicate and repeated at least twice.
The ability of PGC-1 to activate the PEPCK-promoter (using a luciferase reporter gene) in hepatoma cells was examined. Fao rat hepatoma cells were maintained in 10% FBS-RPMI and transfected in a 6 well format with 200 ng of pPL32-PEPCK-luciferase (or pGL3-PEPCK-luciferase), 100 ng CMV β-galactosidase, and […] of pCMV or pCMV-PGC-1 per well. Cells were harvested for luciferase assays 48 hours after transfection, and the readings were normalized by β-galactosidase activity. […] In the transient transfection assays described above, PGC-1 activated the wild-type PEPCK promoter-reporter gene by approximately 10-fold (FIG. 4).
To identify the regulatory elements mediating the effect of PGC-1 on this promoter, mutant constructs were utilized in which various regulatory elements within the PEPCK-luciferase reporter construct were substituted by a yeast Gal4 DNA binding element (FIG. 1; Wang, J. C. et al. (1999) Mol. Endocrinol. 13:604-618). […] However, mutation of the AF1 or AF3 site (or both) each reduced the PGC-1-mediated activation by 50-60%; a combination of the AF1-to-Gal4 substitution and additional block mutations in the GR binding sites (GR1, GR2) led to a small but significant further decrease. […] A replacement of the P3 (I) site, an element shared by the cAMP and thyroid hormone response units, by the Gal4 DNA binding element caused a modest (25%) reduction in the PGC-1 mediated activation of the PEPCK reporter. […] It also appears that there are other unidentified regulatory elements on the PEPCK promoter through which PGC-1 can produce a partial activation.
The AF1 and AF3 sites are both DR-1 type sequences that can bind several nuclear receptors. […] The AF3 element has also been associated with COUP-TF binding (Scott et al (1996) supra). […] Vectors encoding the Gal4 DBD, Gal4 DBD-HNF-4α, or Gal4 DBD-COUP-TF fusion proteins (500 ng per well) were cotransfected with the mutant receptors, containing a substitution of a particular element within the Gal4 DBD, to determine whether they can rescue the PGC-1 activity. […] In contrast, cotransfection of a Gal4-COUP-TF construct produced only a partial restoration (approximately 20-30% of that achieved by HNF-4α), and cotransfection of the Gal4 DBD alone had virtually no effect on the PGC-1 mediated activation. Very similar results were obtained at the AF3 site.
The role of the glucocorticoid response elements in the PEPCK promoter was also examined. […] Fao hepatoma cells were transfected as described above for FIG. 4. Dexamethasone (dex, 1 μM final concentration) was added for the final 24 hours.

HNF-4α = target: T1, HNF-4α (Homo sapiens, UniProt P41235); assay: Multimerized AF1 reporter assay in NIH 3T3 fibroblasts, HNF-4α; format: cell-based; conditions: NIH 3T3, no hormone or ligand added
T1 construct: made in house; host or cells: TNT reticulocyte lysate in vitro transcription/translation (Promega)
T1 sequence (P41235 1-474): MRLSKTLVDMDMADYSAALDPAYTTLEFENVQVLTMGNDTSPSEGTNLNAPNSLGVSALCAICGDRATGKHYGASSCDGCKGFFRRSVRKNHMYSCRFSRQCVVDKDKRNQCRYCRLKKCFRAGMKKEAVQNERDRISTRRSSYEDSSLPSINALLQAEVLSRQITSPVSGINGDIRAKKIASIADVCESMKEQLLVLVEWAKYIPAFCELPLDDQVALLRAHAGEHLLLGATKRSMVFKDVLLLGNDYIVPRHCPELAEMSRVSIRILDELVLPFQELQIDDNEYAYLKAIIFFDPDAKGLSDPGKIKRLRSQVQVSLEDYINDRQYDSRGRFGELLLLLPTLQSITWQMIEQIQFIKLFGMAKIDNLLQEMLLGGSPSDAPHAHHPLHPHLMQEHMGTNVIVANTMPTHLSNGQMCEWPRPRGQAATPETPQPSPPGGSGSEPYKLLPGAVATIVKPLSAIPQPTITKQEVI
Experimental: as §1
(§2) To examine these functional interactions at the AF1 site with intact transcription factors, reporter gene assays were performed using PGC-1, wild-type HNF-4α and COUP-TF proteins, and a multimerized AF1 response element. To avoid interference with endogenous liver factors, these experiments were done in NIH 3T3 fibroblasts. Transfections were done as described above for FIG. 4. Neither HNF-4α, COUP-TF, nor PGC-1 activates these target sequences alone (FIG. 6).

COUP-TF = assay: Multimerized AF1 reporter assay in NIH 3T3 fibroblasts, COUP-TF; format: cell-based
Experimental: as §1, §2

G6 Pase promoter = assay: G6 Pase promoter-luciferase reporter in SV40 transformed hepatocytes; format: cell-based
Experimental: PGC-1 and/or HNF-4α were cotransfected into SV40 transformed hepatocytes, and the ability to coactivate the glucose-6-phosphatase (G6 Pase) promoter was determined using a luciferase reporter gene. Experiments were performed in duplicate.

[2] = system: gluconeogenic, ketogenic, and beta-oxidation genes; assay: Gene induction in control (floxed) or HNF-4α null primary hepatocytes; format: cell-based; conditions: presence and absence of HNF-4α
Description: The ability of PGC-1 to induce mRNA expression of gluconeogenic, ketogenic, and beta-oxidation genes was examined in cells lacking HNF-4α. Control (floxed) or HNF-4α null cells (primary hepatocytes) were infected with adenoviruses containing GFP (control) or PGC-1 and were either untreated, serum-starved, or treated with dexamethasone and cAMP.

FKHR [3] = assay: 3×IRS promoter-luciferase reporter, FKHR coactivation; format: cell-based; conditions: PGC-1 cotransfected with wild-type or mutant FKHR
FKHR [4] = assay: G6 Pase promoter-reporter, FKHR coactivation; format: cell-based; conditions: PGC-1 cotransfected with FKHR
[5] = system: PGC-1 protein, glucose-6-phosphatase and PEPCK mRNA; assay: Adenovirus infusion in Wistar rats, liver immunoblot and Northern; format: in vivo; conditions: rat liver, adenoviral PGC-1
Experimental: Male Wistar rats (Charles River) were fed with standard laboratory food and weighed 300-350 g at the time of the studies. Animals were anesthetized by injection of 0.1 ml per 100 g body mass of a solution containing 25 mg/ml of xylazine (Phoenix Scientific) and 0.5 mg/ml of acepromazine (Fermenta Animal Health). CMV-GFP and CMV-PGC-1 adenoviruses were purified by CsCl gradient centrifugation as described in Becker, T. et al. (1994) Methods Cell Biol. 43:161-189. Pure recombinant virus (1×10^12 plaque forming units), suspended in 0.5 ml of phosphate buffered saline (PBS), was injected into anesthetized rats through the tail vein. Animals were allowed to recover and were fed standard food ad libitum. Five days after adenovirus infusion, tail vein blood was collected at 14:00 for measurement of glucose concentration, using a β-glucose analyzer (HemoCue AB). After the measurement, animals were sacrificed. Blood samples were collected from the heart, centrifuged at 1300 g for 15 minutes at 4° C. in 15 ml centrifuge tubes containing 50 μl of 0.4 M EDTA, and stored at −20° C. before measurement of insulin concentrations with a rat insulin specific radioimmunoassay kit (Linco Research). Liver samples were collected, snap frozen in liquid nitrogen, and stored at −80° C. Aliquots of frozen liver samples were processed for northern blot or immunoblot analysis. […]

## insulin
[1]
  G6 Pase mRNA levels: downregulated
  PGC-1 mRNA levels: do not change
  PGC-1 induced expression of PEPCK and glucose-6-phosphatase: downregulates

## CN(N=O)C(=O)N[C@H]1C(O)O[C@H](CO)[C@@H](O)[C@@H]1O (mixture of isomers) [streptozotocin]
PGC-1
  PGC-1 in liver (Northern): consistently increased

## PGC-1: coactivator of nuclear receptors, expressed from transfected pCMV-PGC-1 or from adenovirus
PEPCK promoter; Fao cells, 1 mg pCMV-PGC-1 per well, 48 hours
  activation of wild-type PEPCK promoter-reporter gene: approximately 10 fold
PEPCK promoter; P3 (I) site replaced by Gal4 DNA binding element
  reduction in PGC-1 mediated activation of the PEPCK reporter: 25%
PEPCK promoter; dexamethasone 1 μM for the final 24 hours
  coactivation of PEPCK promoter through the glucocorticoid receptor: in a ligand dependant manner
PEPCK promoter; mutation in the AF2 or the CRE site
  magnitude of PGC-1 activation: did not produce an appreciable effect
PEPCK promoter; mutation of the AF1 or AF3 site (or both)
  reduction of PGC-1-mediated activation: 50-60%
HNF-4α
  coactivation of HNF-4α on multimerized AF1 response element: dramatically coactivates
COUP-TF
  coactivation of COUP-TF on multimerized AF1 response element: no ability to coactivate
G6 Pase promoter; cotransfected with HNF-4α
  activation of G6 Pase promoter-luciferase reporter: strong coactivation
G6 Pase promoter; transfected alone
  activation of G6 Pase promoter-luciferase reporter: no activation
[2]
  induction of gluconeogenic genes glucose-6-phosphatase and PEPCK: in the presence, but not the absence, of HNF-4α
FKHR [3]
  activation of 3×IRS promoter-luciferase reporter: can coactivate FKHR
FKHR [4]
  coactivation on wild type G6 Pase promoter-reporter: coactivated FKHR
[5]
  liver PEPCK mRNA (Northern): increased expression
  liver mRNA for glucose-6-phosphatase (Northern): dramatic and uniform elevation

B1: constitutively active FKHR: FKHR with three phosphorylatable amino acids changed to alanine (protein, UniProt Q12778 1-655, looked up, variant T24A S256A S319A)
Forkhead box protein O1: MAEAPQVVEIDPDFEPLPRPRSCAWPLPRPEFSQSNSATSSPAPSGSAAANPDAAAGLPSASAAAVSADFMSNLSLLEESEDFPQAPGSVAAAVAAAAAAAATGGLCGDFQGPEAGCLHPAPPQPPPPGPLSQHPPVPPAAAGPLAGQPRKSSSSRRNAWGNLSYADLITKAIESSAEKRLTLSQIYEWMVKSVPYFKDKGDSNSSAGWKNSIRHNLSLHSKFIRVQNEGTGKSSWWMLNPEGGKSGKSPRRRAAAMDNNSKFAKSRSRAAKKKASLQSGQEGAGDSPGSQFSKWPASPGSHSNDDFDNWSTFRPRTSANASTISGRLSPIMTEQDDLGEGDVHSMVYPPSAAKMASTLPSLSEISNPENMENLLDNLNLLSSPTSLTVSTQSSPGTMMQQTPCYSFAPPNTSLNSPSPNYQKYTYGQSSMSPLPQMPIQTLQDNKSSYGGMSQYNCAPGLLKELLTSDSPPHNDIMTPVDPGVAQPNSRVLGQNVMMGPNSVMSTYGSQASHNKMMNPSSHTHPGHAQQTSAVNGRPLPHTVSTMPHTSGMNRLTQVKTPVQVPLPHPMQMSALGGYSSVSSCNGYGRMGLLHQEKLPSDLDGMFIERLDCDMESIIRNDLMDGDTLDFNFDNVLPNQSFPHSVKTTTHSWVSG
[1]
  PGC-1 induced expression of PEPCK and glucose-6-phosphatase: unchanged
FKHR [3]
  activation of 3×IRS promoter-luciferase reporter: increased activation
FKHR [4]
  coactivation on wild type G6 Pase promoter-reporter: further increased
